Test results as given in patent US6825348B2, “Antiviral compounds” (Academia Sinica, priority 2002, dated 2004).

Target: PRPP synthetase (UniProt P0A717)
Assay: PRPP synthetase reaction, conversion to diphosphates and inhibition of AMP phosphorylation
Assay type: biochemical
Method: Enzymatic Conversion of Acyclic Nucleoside Phosphonates and Nucleotide 5′-Monophosphate Analog to Their Antivirally Active Diphosphates (Triphosphate Equivalents). Substrate affinities of acyclic nucleoside phosphonates 4, 20, 21, and dinucleotide analog 24 for PRPP synthetase as well as their inhibitory effect against the enzyme were evaluated according to the established procedures. See, e.g., Balzarini et al. (1991) J. Biol. Chem. 266: 8686-8689 and references cited therein. The assays were then terminated after 4 h by the addition of MeOH. HPLC on an anion-exchange Partisphere column was used to analyze the formation of […] 21pp, PMEApp, 4pp, 20pp, and 24pp.

[1] = conversion to diphosphate by PRPP synthetase

| Structure (SMILES) | Vmax [1] [μmol/unit/h] | Vmax (phosphorylation by PRPP synthetase, no unit in text) | substrate affinity for PRPP synthetase, times less than that of PMEA 4 [times] |
| --- | --- | --- | --- |
| Nc1ncnc2c1ncn2[C@@H]1O[C@H](COP(=O)(O)O)[C@@H](O)[C@H]1O [AMP 21, adenosine 5′-monophosphate, reference compound] | 14.270 | 14 | – |
| Nc1ncnc2ncn(CCOCP(=O)(O)O)c12 [Compound 20, 7-[2-(Phosphonomethoxy)ethyl]adenine] | 0.013 | – | 4 |
| Nc1ncnc2c1ncn2CCOCP(=O)(O)O [PMEA 4, 9-[2-(phosphonomethoxy)ethyl]adenine, reference compound] | 0.096 | – | – |
